In US9169254B2, “Spiroimidazolone derivative” (Chugai Seiyaku Kabushiki Kaisha, priority 2009, dated 2015):

Biological target: T1, human PTH1 receptor (Homo sapiens, UniProt Q03431)
T1 sequence (Q03431 27-593): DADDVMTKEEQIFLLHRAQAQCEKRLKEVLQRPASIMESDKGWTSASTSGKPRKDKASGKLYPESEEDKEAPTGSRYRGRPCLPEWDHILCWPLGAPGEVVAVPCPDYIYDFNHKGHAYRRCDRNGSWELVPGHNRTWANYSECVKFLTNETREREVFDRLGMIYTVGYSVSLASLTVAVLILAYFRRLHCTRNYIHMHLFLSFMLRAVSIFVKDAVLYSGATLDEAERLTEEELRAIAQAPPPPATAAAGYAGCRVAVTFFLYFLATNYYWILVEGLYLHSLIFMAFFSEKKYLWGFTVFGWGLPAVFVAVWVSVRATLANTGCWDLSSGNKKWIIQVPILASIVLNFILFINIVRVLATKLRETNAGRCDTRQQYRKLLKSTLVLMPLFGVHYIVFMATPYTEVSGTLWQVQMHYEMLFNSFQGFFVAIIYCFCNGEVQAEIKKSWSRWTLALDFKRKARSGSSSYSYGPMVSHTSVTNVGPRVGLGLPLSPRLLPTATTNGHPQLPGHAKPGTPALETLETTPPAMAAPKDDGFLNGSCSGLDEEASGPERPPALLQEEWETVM
Experiment: In vitro cAMP signal activity in HKRK-B7 cells (LLC-PK1 cells overexpressing the human PTH1 receptor)
Type: cell-based
Conditions: HKRK-B7 cells; compound at 1×10^−3 M; cAMP produced as percentage of that produced by hPTH(1-34) at 100 nM

Compound | cAMP production activity (%)
Cc1cc(N2C(=O)NC(C)(C)C2=O)ccc1/C=C/S(=O)(=O)N1CCC2(CC1)N=C(C1CCC(C)CC1)NC2=O (centres unmarked) [Compound 511, 5,5-dimethyl-3-(3-methyl-4-{(E)-2-[2-(4-methyl-cyclohexyl)-4-oxo-1,3,8-triaza-spiro[4.5]dec-1-ene-8-sulfonyl]-vinyl}-phenyl)-imidazolidine-2,4-dione] | 29%
COCc1cc(NC(C)=O)ccc1/C=C/S(=O)(=O)N1CCC2(CC1)N=C(C1CCC(C)CC1)NC2=O (centres unmarked) [Compound 512, N-(3-methoxymethyl-4-{(E)-2-[2-(4-methyl-cyclohexyl)-4-oxo-1,3,8-triaza-spiro[4.5]dec-1-ene-8-sulfonyl]-vinyl}-phenyl)-acetamide] | 49%
Cc1cc(N2CCOC2=O)ccc1/C=C/S(=O)(=O)N1CCC2(CC1)N=C(C1CCC(C)CC1)NC2=O (centres unmarked) [Compound 513, 2-(4-methyl-cyclohexyl)-8-{(E)-2-[2-methyl-4-(2-oxo-oxazolidin-3-yl)-phenyl]-ethenesulfonyl}-1,3,8-triaza-spiro[4.5]dec-1-en-4-one] | 33%
COCCN(C(C)=O)c1cc(C)c(/C=C/S(=O)(=O)N2CCC3(CC2)N=C(C2CCC(C)CC2)NC3=O)c(C)c1 (centres unmarked) [Compound 514, N-(3,5-dimethyl-4-{(E)-2-[2-(4-methyl-cyclohexyl)-4-oxo-1,3,8-triaza-spiro[4.5]dec-1-ene-8-sulfonyl]-vinyl}-phenyl)-N-(2-methoxy-ethyl)-acetamide] | 75%
Cc1cc(N2CCOCC2=O)cc(C)c1/C=C/S(=O)(=O)N1CCC2(CC1)N=C(C1CCC(C)CC1)NC2=O (centres unmarked) [Compound 515, 8-{(E)-2-[2,6-dimethyl-4-(3-oxo-morpholin-4-yl)-phenyl]-ethenesulfonyl}-2-(4-methyl-cyclohexyl)-1,3,8-triaza-spiro[4.5]dec-1-en-4-one] | 113%
Cc1cc(N2CCCCC2=O)cc(C)c1/C=C/S(=O)(=O)N1CCC2(CC1)N=C(C1CCC(C)CC1)NC2=O (centres unmarked) [Compound 516, 8-{(E)-2-[2,6-dimethyl-4-(2-oxo-piperidin-1-yl)-phenyl]-ethenesulfonyl}-2-(4-methyl-cyclohexyl)-1,3,8-triaza-spiro[4.5]dec-1-en-4-one] | 73%
CC(=O)N(C)Cc1cc(C)c(/C=C/S(=O)(=O)N2CCC3(CC2)N=C(C2CCC(C)CC2)NC3=O)c(C)c1 (centres unmarked) [Compound 517, N-(3,5-dimethyl-4-{(E)-2-[2-(4-methyl-cyclohexyl)-4-oxo-1,3,8-triaza-spiro[4.5]dec-1-ene-8-sulfonyl]-vinyl}-benzyl)-N-methyl-acetamide] | 58%
Cc1cc(CN2C(=O)CNC2=O)cc(C)c1/C=C/S(=O)(=O)N1CCC2(CC1)N=C(C1CCC(C)CC1)NC2=O (centres unmarked) [Compound 518, 3-(3,5-dimethyl-4-{(E)-2-[2-(4-methyl-cyclohexyl)-4-oxo-1,3,8-triaza-spiro[4.5]dec-1-ene-8-sulfonyl]-vinyl}-benzyl)-imidazolidine-2,4-dione] | 68%
Cc1cc(CN2C(=O)NC(C)(C)C2=O)cc(C)c1/C=C/S(=O)(=O)N1CCC2(CC1)N=C(C1CCC(C)CC1)NC2=O (centres unmarked) [Compound 519, 3-(3,5-dimethyl-4-{(E)-2-[2-(4-methyl-cyclohexyl)-4-oxo-1,3,8-triaza-spiro[4.5]dec-1-ene-8-sulfonyl]-vinyl}-benzyl)-5,5-dimethyl-imidazolidine-2,4-dione] | 72%
Cc1cc(CN2CCCC2=O)cc(C)c1/C=C/S(=O)(=O)N1CCC2(CC1)N=C(C1CCC(C)CC1)NC2=O (centres unmarked) [Compound 520, 8-{(E)-2-[2,6-dimethyl-4-(2-oxo-pyrrolidin-1-ylmethyl)-phenyl]-ethenesulfonyl}-2-(4-methyl-cyclohexyl)-1,3,8-triaza-spiro[4.5]dec-1-en-4-one] | 28%
Cc1cc(CN2C(=O)CCC2=O)cc(C)c1/C=C/S(=O)(=O)N1CCC2(CC1)N=C(C1CCC(C)CC1)NC2=O (centres unmarked) [Compound 521, 1-(3,5-dimethyl-4-{(E)-2-[2-(4-methyl-cyclohexyl)-4-oxo-1,3,8-triaza-spiro[4.5]dec-1-ene-8-sulfonyl]-vinyl}-benzyl)-pyrrolidine-2,5-dione] | 55%
CC(=O)NCc1cc(C)c(/C=C/S(=O)(=O)N2CCC3(CC2)N=C(C2CCC(C)CC2)NC3=O)c(C)c1 (centres unmarked) [Compound 522, N-(3,5-dimethyl-4-{(E)-2-[2-(4-methyl-cyclohexyl)-4-oxo-1,3,8-triaza-spiro[4.5]dec-1-ene-8-sulfonyl]-vinyl}-benzyl)-acetamide] | 82%
CC(=O)N(C)c1cc(F)c(/C=C/S(=O)(=O)N2CCC3(CC2)N=C(C2CCC(C)CC2)NC3=O)c(F)c1 (centres unmarked) [Compound 523, N-(3,5-difluoro-4-{(E)-2-[2-(4-methyl-cyclohexyl)-4-oxo-1,3,8-triaza-spiro[4.5]dec-1-ene-8-sulfonyl]-vinyl}-phenyl)-N-methyl-acetamide] | 89%
O=C1NC(c2cccc(C(F)(F)F)c2)=NC12CCN(S(=O)(=O)/C=C/c1cccc3c1ccn3C[C@H](O)CO)CC2 [Compound 524, 8-{(E)-2-[1-((S)-2,3-dihydroxy-propyl)-1H-indol-4-yl]-ethenesulfonyl}-2-(3-trifluoromethyl-phenyl)-1,3,8-triaza-spiro[4.5]dec-1-en-4-one] | 90%
Cc1cc(N2C(=O)C[C@H](NC(=O)OC(C)(C)C)C2=O)ccc1/C=C/S(=O)(=O)N1CCC2(CC1)N=C(c1cccc(C(F)(F)F)c1)NC2=O [Compound 525, [(S)-1-(3-methyl-4-{(E)-2-[4-oxo-2-(3-trifluoromethyl-phenyl)-1,3,8-triaza-spiro[4.5]dec-1-ene-8-sulfonyl]-vinyl}-phenyl)-2,5-dioxo-pyrrolidin-3-yl]-carbamic acid tert-butyl ester] | 14%
O=C1NC(c2cccc(OC(F)(F)F)c2)=NC12CCN(S(=O)(=O)/C=C/c1cccc3c1ccn3C[C@H](O)CO)CC2 [Compound 526, 8-{(E)-2-[1-((S)-2,3-dihydroxy-propyl)-1H-indol-4-yl]-ethenesulfonyl}-2-(3-trifluoromethoxy-phenyl)-1,3,8-triaza-spiro[4.5]dec-1-en-4-one] | 83%
Cc1cc(C(=O)N2CCN(C)CC2)ccc1/C=C/S(=O)(=O)N1CCC2(CC1)N=C(c1cccc(OC(F)(F)F)c1)NC2=O [Compound 527, 8-{(E)-2-[2-methyl-4-(4-methyl-piperazine-1-carbonyl)-phenyl]-ethenesulfonyl}-2-(3-trifluoromethoxy-phenyl)-1,3,8-triaza-spiro[4.5]dec-1-en-4-one] | 93%
Cc1cc(NCC(=O)N2CCN(C)CC2)ccc1/C=C/S(=O)(=O)N1CCC2(CC1)N=C(c1cccc(OC(F)(F)F)c1)NC2=O [Compound 528, 8-((E)-2-{2-methyl-4-[2-(4-methyl-piperazin-1-yl)-2-oxo-ethylamino]-phenyl}-ethenesulfonyl)-2-(3-trifluoromethoxy-phenyl)-1,3,8-triaza-spiro[4.5]dec-1-en-4-one] | 55%
Cc1cc(NCC(N)=O)ccc1/C=C/S(=O)(=O)N1CCC2(CC1)N=C(c1cccc(OC(F)(F)F)c1)NC2=O [Compound 529, 2-(3-methyl-4-{(E)-2-[4-oxo-2-(3-trifluoromethoxy-phenyl)-1,3,8-triaza-spiro[4.5]dec-1-ene-8-sulfonyl]-vinyl}-phenylamino)-acetamide] | 68%
Cc1cc(S(=O)(=O)Nc2ccncc2)ccc1/C=C/S(=O)(=O)N1CCC2(CC1)N=C(c1cccc(OC(F)(F)F)c1)NC2=O [Compound 530, 3-methyl-4-{(E)-2-[4-oxo-2-(3-trifluoromethoxy-phenyl)-1,3,8-triaza-spiro[4.5]dec-1-ene-8-sulfonyl]-vinyl}-N-pyridin-4-yl-benzenesulfonamide] | 18%
Cc1cc(OCCC(O)CO)ccc1/C=C/S(=O)(=O)N1CCC2(CC1)N=C(c1cccc(OC(F)(F)F)c1)NC2=O (centres unmarked) [Compound 531, 8-{(E)-2-[4-(3,4-dihydroxy-butoxy)-2-methyl-phenyl]-ethenesulfonyl}-2-(3-trifluoromethoxy-phenyl)-1,3,8-triaza-spiro[4.5]dec-1-en-4-one] | 69%
Cc1cc(N(CCO)C(=O)NCCO)cc(C)c1/C=C/S(=O)(=O)N1CCC2(CC1)N=C(c1cccc(OC(F)(F)F)c1)NC2=O [Compound 532, 1-(3,5-dimethyl-4-{(E)-2-[4-oxo-2-(3-trifluoromethoxy-phenyl)-1,3,8-triaza-spiro[4.5]dec-1-ene-8-sulfonyl]-vinyl}-phenyl)-1,3-bis-(2-hydroxy-ethyl)-urea] | 80%
Cc1cc(N(CCO)C(=O)N(C)CCO)cc(C)c1/C=C/S(=O)(=O)N1CCC2(CC1)N=C(c1cccc(OC(F)(F)F)c1)NC2=O [Compound 533, 1-(3,5-dimethyl-4-{(E)-2-[4-oxo-2-(3-trifluoromethoxy-phenyl)-1,3,8-triaza-spiro[4.5]dec-1-ene-8-sulfonyl]-vinyl}-phenyl)-1,3-bis-(2-hydroxy-ethyl)-3-methyl-urea] | 69%
